Laboratory results taken from PubChem BioAssay AID651988 (The Scripps Research Institute Molecular Screening Center, 2013).
Activity calls are given as the source filed them.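 Rule for the calls: active = inhibition of 50% or more at 300 nM in exactly one of the two enzyme panels, LYPLA1 or LYPLA2; inactive = under 50% in both panels, or reaching 50% in both.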

How the values were obtained:
[1] = biological target: Acyl-protein thioesterase 1 (Homo sapiens) (UniProt O75608); assay: selectivity of LYPLA1/LYPLA2 inhibition – cell lysate, gel-based ABPP, fluorescence, HEK293T proteome, powder samples, selectivity assay for LYPLA1/LYPLA2 inhibitor project, late-stage follow-up (AID 651988); details: HEK293T soluble proteome, FP-PEG-Rh fluorescence, LYPLA1, at 10 µM, stronger effect = higher value
[2] = biological target: Acyl-protein thioesterase 2 (Homo sapiens) (UniProt O95372); assay: as above; details: HEK293T soluble proteome, FP-PEG-Rh fluorescence, LYPLA2, at 10 µM, stronger effect = higher value
Sequence of Acyl-protein thioesterase 2 (Homo sapiens) (O95372 whole entry, looked up): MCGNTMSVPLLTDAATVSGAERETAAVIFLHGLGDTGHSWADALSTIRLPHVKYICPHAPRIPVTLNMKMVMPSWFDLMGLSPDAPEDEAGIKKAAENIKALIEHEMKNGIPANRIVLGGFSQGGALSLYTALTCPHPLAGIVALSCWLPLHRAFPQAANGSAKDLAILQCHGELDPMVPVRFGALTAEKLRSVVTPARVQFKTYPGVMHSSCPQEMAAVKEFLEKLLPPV

Sequence of Acyl-protein thioesterase 1 (Homo sapiens) (O75608 whole entry, looked up): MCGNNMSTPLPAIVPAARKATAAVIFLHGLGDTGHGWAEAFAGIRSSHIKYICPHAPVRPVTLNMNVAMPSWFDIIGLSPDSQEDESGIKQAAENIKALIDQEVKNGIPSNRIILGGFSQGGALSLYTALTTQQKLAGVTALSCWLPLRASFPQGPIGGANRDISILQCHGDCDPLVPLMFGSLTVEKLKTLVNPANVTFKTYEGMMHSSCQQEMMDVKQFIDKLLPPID

Row | inhibition [1] | inhibition [2] | SMILES
1 | 0% (inactive) | 100% (inactive) | COc1ccc(N2CCN(C(=O)c3cc4c(s3)CCCCC4)CC2)cc1
2 | 0% (inactive) | 100% (inactive) | O=C(c1cc2c(s1)-c1ccccc1S(=O)(=O)C2)N1CCN(c2ccc(Cl)cc2)CC1
3 | 0% (inactive) | 75% (inactive) | O=C(c1cc2c(s1)-c1ccccc1S(=O)(=O)C2)N1CCN(c2ccccc2)CC1
4 | 25% (inactive) | 0% (inactive) | O=C(COc1ccc(Cl)cc1)N1CCN(c2cccc(C(F)(F)F)c2)CC1
5 | 0% (inactive) | 100% | COc1ccc(N2CCN(C(=O)c3cc4c(s3)-c3ccccc3S(=O)(=O)C4)CC2)cc1
6 | 100% | 25% (inactive) | O=C(CN1CCN(C(=O)c2ccco2)CC1)Nc1cc(Cl)ccc1Cl
7 | 0% (inactive) | 25% (inactive) | O=C(c1cc2c(s1)-c1ccccc1S(=O)(=O)C2)N1CCN(C2CCCCC2)CC1
8 | 50% (inactive) | 50% (inactive) | O=C(CN1CCN(C(=O)c2ccco2)CC1)Nc1ccc(Br)cc1Cl
9 | 0% (inactive) | 75% (inactive) | O=C(c1cc2c(s1)-c1ccc(Cl)cc1S(=O)(=O)C2)N1CCN(C2CCCCC2)CC1
10 | 0% (inactive) | 0% (inactive) | CC1CCc2c(sc(NC(=O)CN3CCN(C(=O)c4ccco4)CC3)c2C#N)C1 (configuration not stated)
11 | 0% (inactive) | 0% (inactive) | O=C(c1cc2c(s1)-c1ccc(Cl)cc1S(=O)(=O)C2)N1CCN(c2ccccn2)CC1
12 | 75% (inactive) | 0% (inactive) | O=C(CN1CCN(C(=O)c2ccccc2)CC1)Nc1cc(S(=O)(=O)N2CCCC2)ccc1Cl
13 | 0% (inactive) | 0% (inactive) | O=C(c1ccco1)N1CCN(C(=S)Nc2cccc([N+](=O)[O-])c2)CC1
14 | 0% (inactive) | 0% (inactive) | CCOC(=O)N1CCN(C(=O)c2cc3c(s2)-c2ccc(Cl)cc2S(=O)(=O)C3)CC1
15 | 50% (inactive) | 50% (inactive) | O=C(CN1CCN(C(=O)c2ccco2)CC1)Nc1ccc(Cl)cc1Cl
16 | 0% (inactive) | 0% (inactive) | O=C(CN1CCN(C(=O)c2ccco2)CC1)Nc1cccc(Cl)c1Cl
17 | 0% (inactive) | 0% (inactive) | O=C(c1cc2c(s1)-c1ccccc1S(=O)(=O)C2)N1CCN(c2cccc(Cl)c2)CC1
18 | 100% (inactive) | 50% (inactive) | O=C(c1ccco1)N1CCN(C(=S)Nc2ccc(F)c(Cl)c2)CC1
19 | 75% (inactive) | 50% (inactive) | O=C(Nc1ccc(N2CCN(C(=O)c3ccco3)CC2)c(Cl)c1)c1c(F)c(F)c(F)c(F)c1F
20 | 0% (inactive) | 0% (inactive) | COc1ccccc1N1CCN(C(=O)c2cc3c(s2)-c2ccccc2S(=O)(=O)C3)CC1
21 | 0% (inactive) | 0% (inactive) | CC(C(=O)Nc1cccc(C(F)(F)F)c1)N1CCN(C(=O)c2ccco2)CC1 (configuration not stated)
22 | 0% (inactive) | 75% (inactive) | COc1ccc(N2CCN(C(=O)c3ccc(C(C)(C)C)cc3)CC2)cc1
23 | 100% | 25% (inactive) | O=C(CN1CCN(C(=O)c2ccco2)CC1)Nc1cc(C(F)(F)F)ccc1Cl
24 | 0% (inactive) | 0% (inactive) | Cc1nnsc1C(=O)N1CCCC(N2CCN(c3cccc(C(F)(F)F)c3)CC2)C1 (configuration not stated)
25 | 0% (inactive) | 75% (inactive) | O=C(c1cc2c(s1)-c1ccc(Cl)cc1S(=O)(=O)C2)N1CCN(c2ncccn2)CC1
26 | 0% (inactive) | 50% (inactive) | O=C(c1cc2c(s1)-c1ccccc1S(=O)(=O)C2)N1CCN(Cc2ccccc2)CC1
